According to ChEMBL document CHEMBL1126962, “Antagonists of luteinising hormone-releasing hormone (LHRH). Progress towards non-peptide leads” (1993):

Tests used:
Format in all cases: functional
Rattus norvegicus [1] = species: Rattus norvegicus; test: Effective dose required to inhibit ovulation in normal cycling rats
Rattus norvegicus [2] = test: Effective dose required to inhibit ovulation in normal cycling rats at 1 mg/kg
Rattus norvegicus [3] = test: Effective dose required to inhibit ovulation in normal cycling rats at a dose of 2 mg/kg

Row | Structure (SMILES) | ED50 (Rattus norvegicus [1]) [ug rat-1] | other results
1 | CC(=O)N[C@H](Cc1ccc(Cl)cc1)C(=O)N[C@H](Cc1ccc(Cl)cc1)C(=O)N[C@H](Cc1c[nH]c2ccccc12)C(=O)N[C@@H](CO)C(=O)N[C@H]1CCC(=O)NCCCC[C@@H](C(=O)N2CCC[C@H]2C(=O)N[C@H](C)C(N)=O)NC(=O)[C@H](CC(C)C)NC(=O)[C@@H](CCCN=C(N)N)NC1=O | 90 | –
2 | CC(=O)N[C@H](Cc1ccc(Cl)cc1)C(=O)N[C@H](Cc1ccc(Cl)cc1)C(=O)N[C@H](Cc1c[nH]c2ccccc12)C(=O)N[C@@H](CO)C(=O)N[C@H]1CC(=O)NCCC[C@@H](C(=O)N2CCC[C@H]2C(=O)N[C@H](C)C(N)=O)NC(=O)[C@H](CC(C)C)NC(=O)[C@@H](CCCN=C(N)N)NC1=O | 540 | –
3 | CC(=O)N[C@H](Cc1ccc(Cl)cc1)C(=O)N[C@H](Cc1ccc(Cl)cc1)C(=O)N[C@H](Cc1c[nH]c2ccccc12)C(=O)N[C@@H](CO)C(=O)N[C@H]1CC(=O)NCCCC[C@@H](C(=O)N2CCC[C@H]2C(=O)N[C@H](C)C(N)=O)NC(=O)[C@H](CC(C)C)NC(=O)[C@@H](CCCN=C(N)N)NC1=O | 180 | –
4 | CC(C)C[C@@H]1NC(=O)[C@@H](CCCN=C(N)N)NC(=O)[C@@H]2CCC(=O)NCCCC[C@H](NC1=O)C(=O)N1CCC[C@H]1C(=O)N(C)[C@H](C)C(=O)N[C@H](Cc1ccc(Cl)cc1)C(=O)N[C@H](Cc1ccc(Cl)cc1)C(=O)N[C@H](Cc1c[nH]c3ccccc13)C(=O)N[C@@H](CO)C(=O)N2 | – | ED50 (Rattus norvegicus [2]): 200 ug rat-1; inhibition in vivo at 1 mg/kg (Rattus norvegicus [2]): 50%
5 | CC(C)C[C@@H]1NC(=O)[C@@H](CCCN=C(N)N)NC(=O)[C@@H]2CCC(=O)NCCCC[C@H](NC1=O)C(=O)N1CCC[C@H]1C(=O)N[C@H](C)C(=O)N[C@H](Cc1ccc(Cl)cc1)C(=O)N[C@H](Cc1ccc(Cl)cc1)C(=O)N[C@H](Cc1c[nH]c3ccccc13)C(=O)N[C@@H](CO)C(=O)N2 | – | inhibition in vivo at 2 mg/kg (Rattus norvegicus [3]): 40%
